{
  "source": "patent US20240307372A1",
  "about": "“COMPOSITIONS AND METHODS TO IMPROVE BENEFIT OF SUBOPTIMALLY ADMINISTERED THERAPEUCTICS FOR THE TREATMENT OF BENIGN AND NEOPLASTIC DISEASES, INFECTIONS, INFLAMMATORY, METABOLIC AND IMMUNOLOGIAL DISEASES” (priority 2023, published 2024)",
  "key": {"[1]": {"conditions": "cited from earlier work"}, "[2]": {"system": "leukemia cell lines", "conditions": "cited from earlier work"}, "[3]": {"molecular_target": "hERG (Homo sapiens, UniProt Q12809)", "sequence (Q12809 whole entry)": "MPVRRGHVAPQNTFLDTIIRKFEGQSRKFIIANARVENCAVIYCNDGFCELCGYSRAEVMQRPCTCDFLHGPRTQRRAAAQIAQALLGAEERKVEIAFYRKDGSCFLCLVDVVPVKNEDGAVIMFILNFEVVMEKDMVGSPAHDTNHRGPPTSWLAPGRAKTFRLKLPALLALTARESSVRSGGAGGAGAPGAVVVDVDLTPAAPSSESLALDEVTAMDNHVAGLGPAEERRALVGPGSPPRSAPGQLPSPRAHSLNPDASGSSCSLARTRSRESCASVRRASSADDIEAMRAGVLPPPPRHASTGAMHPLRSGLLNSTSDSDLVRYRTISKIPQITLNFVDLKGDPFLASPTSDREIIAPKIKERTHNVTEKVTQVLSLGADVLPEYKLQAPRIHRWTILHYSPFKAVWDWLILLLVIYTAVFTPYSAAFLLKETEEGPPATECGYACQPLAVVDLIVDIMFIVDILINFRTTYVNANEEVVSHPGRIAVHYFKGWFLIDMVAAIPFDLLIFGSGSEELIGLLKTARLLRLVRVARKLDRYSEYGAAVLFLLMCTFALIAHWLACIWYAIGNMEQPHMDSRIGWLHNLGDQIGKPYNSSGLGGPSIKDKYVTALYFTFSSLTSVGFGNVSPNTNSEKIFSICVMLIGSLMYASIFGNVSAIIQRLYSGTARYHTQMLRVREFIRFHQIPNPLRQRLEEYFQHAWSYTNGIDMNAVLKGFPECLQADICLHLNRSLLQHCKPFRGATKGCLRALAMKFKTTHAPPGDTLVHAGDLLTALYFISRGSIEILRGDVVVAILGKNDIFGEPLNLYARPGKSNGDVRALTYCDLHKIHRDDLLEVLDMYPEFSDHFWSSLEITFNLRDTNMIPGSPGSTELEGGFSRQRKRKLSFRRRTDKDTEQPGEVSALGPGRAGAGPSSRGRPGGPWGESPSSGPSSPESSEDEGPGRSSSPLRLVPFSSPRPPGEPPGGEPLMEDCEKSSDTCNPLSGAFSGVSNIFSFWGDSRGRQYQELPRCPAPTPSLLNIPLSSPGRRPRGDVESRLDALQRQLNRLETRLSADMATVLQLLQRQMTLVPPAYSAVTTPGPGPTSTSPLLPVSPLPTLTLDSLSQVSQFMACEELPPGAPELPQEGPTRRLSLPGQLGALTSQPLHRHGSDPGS", "assay": "hERG inhibition, IonWorks HT electrophysiology in CHO cells stably transfected with hERG", "conditions": "for IC50: read-out: hERG IC50, CHO cells stably transfected with hERG, 300 sec contact", "method": "The purpose of this study was to evaluate the potential of a test article to inhibit hERG. The experiments are performed on an Ion Works™ HT instrument (Molecular Devices Corporation), which automatically performs electrophysiology measurements in […] single cells simultaneously in aspecialized 384-well plate (PatchPlate). All cell suspensions, buffers and test compound solutions are at room temperature during the experiment. The cells used are Chinese hamster ovary (CHO) cells stably transfected with hERG (cell-line obtained from Cytomyx, UK). A single-cell suspension is prepared in extracellular solution (Dulbecco's phosphate buffered saline with calcium and magnesium pH 7-7.2) and aliquots added automatically to each well of a PatchPlate™. The cells are then positioned over a small hole at the bottom of each well by applying a vacuum beneath the plate to form an electrical seal. The vacuum is applied through a single compartment common to all wells which is filled with intracellular solution (buffered to pH 7.2 with HEPES). The resistance of cach seal is measured via a common ground-electrode in the intracellular compartment and individual electrodes placed into each of the upper wells. Electrical access to the cell is then achieved by circulating a perforating agent, amphotericin, underneath the PatchPlate and then measuring the pre-compound hERG current. An electrode is positioned in the extracellular compartment and a holding potential of −80 mV applied for 15 sec. The hERG channels are then activated by applying a depolarizing step to +40 mV for 5 sec and then clamped at −50 mV for 4 sec to elicit the hERG tail current, before returning to −80 mV for 0.3 sec. Test compound is then added automatically to the upper wells of the PatchPlateTM from a 96-well microtitre plate containing a range of concentrations of each compound. […] The test compound is left in contact with the cells for 300 sec before recording currents using the same voltage-step protocol as in the pre-compound scan. […] Each concentration is tested in 4 replicate wells on the PatchPlate™. […] Post-compound currents are then expressed as a percentage of pre-compound currents and plotted against concentration for each compound (FIG. 8). Testing was conducted by Cyprotex US, LLC, Watertown, MA."}, "[4]": {"system": "human chronic myeloid leukemia (CML) progenitors", "assay": "Colony forming cell (CFC) assay on CML patient bone marrow cells, methylcellulose-based medium", "conditions": "for BFU-E colonies / CFU-E colonies / Total Erythroid colonies: no Epo"}, "[5]": {"system": "colorectal (CT-26) xenografts", "conditions": "colorectal (CT-26) mouse xenografts; cited from earlier work"}, "[6]": {"system": "β-catenin", "assay": "β-catenin protein level in K562 cell extracts by western blot", "assay_type": "cell-based, human", "conditions": "for β-catenin level in K562 cells: 0.1-40 μM, 24 hours", "method": "The second portion was to quantitate the levels of β-catenin protein by western blot. TET's ability in an in vitro assay to reduce β-catenin expression was tested in human erythroleukemic (K562) cells. Testing was conducted by Alamo Laboratories, San Antonia, TX.\nBriefly, the method to quantitate β-catenin protein by western blot was as follows: Extracts of K562 cells (untreated and treated with various concentrations of tetrandrine) were concentrated to 0.4 ml using Centricon-3 column to yield a protein concentration of approximately 2 mg/ml. Samples were mixed with 5× Laemmli buffer and loaded on 8-16% Tris-Glycine gradient gel, then polyacrylamide gel electrophoresis (PAGE) was run at 85 volts for 100 minutes at 6° C. and proteins were transferred on PVDF membrane at 70 Volts for 85 minutes at 8° C. Membrane was blocked with 5% milk in Tris-buffered Saline containing 0.1% TW-20 (TBST). Membrane was incubated with primary antibody for 18 hours at 4° C. followed by 3 washes, 5 minutes each, with TBST and incubated with secondary antibody in TBST for 2 hours at 25° C. The membrane was washed again with TBST as described above and incubated with ECL-2 substrate for 5 minutes and scanned on Kodak Image Station. After scan, blot was stripped of primary and secondary antibodies and re-probed with anti-beta Actin antibody as described above. Protein bands in WB images were quantitated using Molecular Imaging software pack MIS-4.0 software and tabulated in Excel spreadsheet."}, "[7]": {"system": "CML colonies (secondary clonal growth)", "assay": "Replating assay, secondary clonal growth of CML colonies", "assay_type": "cell-based, human", "conditions": "colonies from original cultures with ES-3000 @10 μM"}, "[8]": {"system": "HCT116 cells", "conditions": "human colorectal (HCT116) cells; cited from earlier work"}, "[9]": {"system": "K562 cells", "assay": "K562 cell viability after TET exposure (trypan blue)", "assay_type": "cell-based, human", "conditions": "24 hours", "method": "Briefly, the method for the first portion of the study was as follows: K562 cells were grown and maintained in medium (RPMI, 10% FBS, Pen Strep and […]). Cells were then exposed to TET, 0, 0.1, 1, 5, 10, 20 & 40 μM for 24 hours at 37° C. Following drug exposure, cell viability was checked using trypan blue, followed by cell lysis. Supernatants were collected and test for protein concentration using a Pierce BCA kit. The protein assay tubes were read on a Spectramax at 562 nm and Softmax@ software was used for protein concentration analysis.\nThe effect of TET treatment on K562 percent cell viability is depicted in Table 2 and is graphically illustrated in FIG. 2."}},
  "note": "Like-named read-outs stand apart in the source and are kept apart here.",
  "data": [
    {"substance": "6,6′,7,12-tetramethoxy-2,2′-dimethyl-berbaman [ES-3000]", "values": [
      {"measurement": "protein binding", "setting": "[1]", "value": "highly protein bound"},
      {"measurement": "50% growth inhibition (Log GI50)", "setting": "[2]; NCI 60 cell line screen", "value": "−5.0 to −6.6"},
      {"measurement": "GI50", "setting": "[2]; read-out: 50% growth inhibition (GI50), NCI 60 cell line screen", "value": "0.25 to 10", "unit": "µM"},
      {"measurement": "IC50", "setting": "[3]", "value": 5.15, "unit": "µM"},
      {"measurement": "IC50", "setting": "[3]; listed as TET", "value": 5.2, "unit": "µM"},
      {"measurement": "plasma level above which QT prolongation might be expected", "setting": "[3]; subjects", "value": "above 249 ng/mL"},
      {"measurement": "safety margin for cardiac conduction-related toxicity (hERG IC50 versus human Cmax)", "setting": "[3]; utilizing Cmax from previous human clinical experience", "value": 13, "unit": "fold"},
      {"measurement": "CFU-GM colonies", "setting": "[4]; 0.1 μM", "value": "55 ± 5"},
      {"measurement": "Total CFC", "setting": "[4]; 0.1 μM", "value": "88 ± 8"},
      {"measurement": "BFU-E colonies", "setting": "[4]; 0.1 μM", "value": "22 ± 4"},
      {"measurement": "CFU-E colonies", "setting": "[4]; 0.1 μM", "value": "11 ± 1"},
      {"measurement": "Total Erythroid colonies", "setting": "[4]; 0.1 μM", "value": "33 ± 3"},
      {"measurement": "CFU-GM colonies", "setting": "[4]; 1 μM", "value": "54 ± 2"},
      {"measurement": "Total CFC", "setting": "[4]; 1 μM", "value": "86 ± 4"},
      {"measurement": "BFU-E colonies", "setting": "[4]; 1 μM", "value": "22 ± 4"},
      {"measurement": "CFU-E colonies", "setting": "[4]; 1 μM", "value": "10 ± 2"},
      {"measurement": "Total Erythroid colonies", "setting": "[4]; 1 μM", "value": "33 ± 3"},
      {"measurement": "CFU-GM colonies", "setting": "[4]; 3 μM", "value": "52 ± 5"},
      {"measurement": "Total CFC", "setting": "[4]; 3 μM", "value": "75 ± 6"},
      {"measurement": "BFU-E colonies", "setting": "[4]; 3 μM", "value": "14 ± 3"},
      {"measurement": "CFU-E colonies", "setting": "[4]; 3 μM", "value": "9 ± 2"},
      {"measurement": "Total Erythroid colonies", "setting": "[4]; 3 μM", "value": "23 ± 2"},
      {"measurement": "IC50", "setting": "[4]; read-out: Erythroid IC50 ± 95% CI, Human progenitors", "value": "3.12 ± 0.01", "unit": "µM"},
      {"measurement": "tumor growth", "setting": "[5]", "value": "reduced tumor growth by inducing apoptosis"},
      {"measurement": "β-catenin level in K562 cells", "setting": "[6]; listed as TET", "value": "reduced β-catenin"},
      {"measurement": "β-catenin level in K562 cells", "setting": "[6]; listed as Tetrandrine", "value": "lowers the β-catenin level in K562 cells in a dose dependent manner"},
      {"measurement": "β-catenin band in western blot", "setting": "[6]; K562 cells treated with 0 to 10 uM", "value": "A clear β-catenin band was evident"},
      {"measurement": "β-catenin band in western blot", "setting": "[6]; K562 cells treated with 20 and 40 uM", "value": "a convincing β-catenin band was absent"},
      {"measurement": "beta-catenin level (quantitation of protein bands)", "setting": "[6]; K562 cells treated with >10 uM", "value": "significantly less"},
      {"measurement": "average CFC per well (secondary growth)", "setting": "[7]", "value": "three"},
      {"measurement": "wells supported secondary growth with one or more colony", "setting": "[7]", "value": 54.2, "unit": "%"},
      {"measurement": "wnt/β-catenin signaling and tumor growth", "setting": "[8]", "value": "inhibit wnt/β-catenin signaling and tumor growth"},
      {"measurement": "% Viability", "setting": "[9]; 0.1 μM", "value": 82.4, "unit": "%"},
      {"measurement": "% Viability", "setting": "[9]; 1 μM", "value": 79.2, "unit": "%"},
      {"measurement": "% Viability", "setting": "[9]; 5 μM", "value": 81.8, "unit": "%"},
      {"measurement": "% Viability", "setting": "[9]; 10 μM", "value": 79.7, "unit": "%"},
      {"measurement": "% Viability", "setting": "[9]; 20 μM", "value": 76.5, "unit": "%"},
      {"measurement": "% Viability", "setting": "[9]; 40 μM", "value": 56.4, "unit": "%"}
    ]}
  ]
}
